From patent US9302989B2 (priority 2010, dated 2016)
pIC50: −log10 of the molar value.

Target: NAMPT (Homo sapiens (Human), UniProt P43490)
Test: biochemical
Experimental: Determination of the utility of compounds having Formula (I) as binders to and inhibitors of NAMPT was performed using a Time-Resolved Fluorescence Resonance Energy Transfer (TR-FRET) binding assay.
Time-Resolved Fluorescence Resonance Energy Transfer (TR-FRET) Binding Assay of NAMPT
Plates were covered, and reactions were carried out for 2-3 hours. Plates were read with Envision (Laser Lantha low volume protocol) after 2 to 3 hours.

Sequence of NAMPT (P43490 whole entry, looked up): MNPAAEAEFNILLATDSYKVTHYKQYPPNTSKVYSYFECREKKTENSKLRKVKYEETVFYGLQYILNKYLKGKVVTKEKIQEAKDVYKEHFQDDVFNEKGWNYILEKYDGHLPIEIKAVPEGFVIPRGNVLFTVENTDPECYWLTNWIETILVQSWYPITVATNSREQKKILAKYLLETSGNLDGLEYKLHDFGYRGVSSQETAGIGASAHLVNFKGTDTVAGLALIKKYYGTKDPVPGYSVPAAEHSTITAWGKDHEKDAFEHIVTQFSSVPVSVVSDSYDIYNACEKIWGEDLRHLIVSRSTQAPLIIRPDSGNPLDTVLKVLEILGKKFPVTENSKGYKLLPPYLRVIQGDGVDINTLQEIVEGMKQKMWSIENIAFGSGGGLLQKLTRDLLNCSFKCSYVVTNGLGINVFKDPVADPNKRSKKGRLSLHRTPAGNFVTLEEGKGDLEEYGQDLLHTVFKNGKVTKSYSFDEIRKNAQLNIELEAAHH

With `CC(C)CCC(=O)Nc1ccc(NC(=O)N2Cc3ccccc3C2)cc1` [Example 294, N-{4-[(4-methylpentanoyl)amino]phenyl}-1,3-dihydro-2H-isoindole-2-carboxamide] the pIC50 was 8.09.
